Measured values taken from US4298617A, “Symmetrical and asymmetrical sulfinyl-dicarbamates” (priority 1979, dated 1981).
Where two headings read alike, the source gives them in different places.

Key:
Swiss white mice = test: in vivo
Procedure: (§1) Mammalian toxicity was determined against Swiss white mice. The test compound was applied orally using corn oil or propylene glycol as the carrier, depending upon solubility of the compound therein.

in vivo = conditions: mouse, in vivo, po
Procedure: as §1

[1] = tested on: house flies, Musca domestica; test: Topical insecticidal activity against house flies (percent mortality 24 hours after application); type: in vivo; conditions: read-out: House flies LD50
Procedure: (§2) Representative compounds of the N,N'-sulfinyldicarbamate esters of the invention were tested for insecticidal activity against two insect species, house flies, Musca domestica, and mosquito larvae, Culex pipiens. Stock 1% concentrated solutions of each of the test compounds were made in acetone, and such solutions diluted with acetone to a concentration of 0.001-0.1%. House flies were treated topically on the notum by 1 μl of each of the diluted acetone solutions and percent mortality was counted 24 hours after application. Insects were held at a constant temperature of 60° F. Larvicidal activity was determined by applying 1 ml of the acetone solution in 100 ml of water containing 20 3rd instar mosquito larvae. Results are presented as LD50 in μg/g for house flies and LC50 in ppm for mosquito larvae.

[2] = tested on: mosquito larvae, Culex pipiens; test: Larvicidal activity against mosquito larvae; type: in vivo; conditions: 3rd instar larvae, 1 ml acetone solution in 100 ml water, 20 larvae
Procedure: as §2

[3] = topical on the notum, 1 μl acetone solution, 24 hours, 60° F.

Structure (SMILES)	LD50 (in vivo)	LD50 ([1]; topical, 24 h)	further results
CNC(=O)Oc1ccccc1OC(C)C [2-isopropoxyphenyl methylcarbamate, reference compound]	–	–	Mice LD50 (Swiss white mice; oral, corn oil or propylene glycol carrier): 60 mg/kg
CCOC(=O)N(C)[S+]([O-])N(C)C(=O)Oc1cccc(C(C)C)c1 (centres unmarked) [3-isopropylphenyl N-[N'-(ethoxycarbonyl)-N'-(methylaminosulfinyl)]-N-methylcarbamate]	50 to 100 mg/kg	75 mg/kg	–
CN(C(=O)Oc1cccc2c1OC(C)(C)C2)[S+]([O-])N(C)C(=O)Oc1cccc2c1OC(C)(C)C2 [Example I, N,N'-sulfinyldi-(2,3-dimethyl-2,3-dihydrobenzofuranyl-7 methylcarbamate)]	165 mg/kg	20 mg/kg	–
CC(C)Oc1ccccc1OC(=O)N(C)[S+]([O-])N(C)C(=O)Oc1ccccc1OC(C)C [Example II, N,N'-sulfinyldi-(2-isopropoxyphenyl methylcarbamate)]	940 mg/kg	85 mg/kg	–
CSC(C)=NOC(=O)N(C)[S+]([O-])N(C)C(=O)ON=C(C)SC [Example III]	210 mg/kg	–	LD50 [1, 3]: 40 mg/kg
COC(=O)N(C)[S+]([O-])N(C)C(=O)Oc1cccc2c1OC(C)(C)C2 (centres unmarked) [Example VII, 2,3-dihydro-2,2-dimethylbenzofuranyl-7 N-[N'-(methoxycarbonyl)-N'-(methylaminosulfinyl)]-N-methylcarbamate]	62 mg/kg	9 mg/kg	–
CCCOC(=O)N(C)[S+]([O-])N(C)C(=O)ON=C(C)SC (centres unmarked) [Example VI]	160 mg/kg	–	LD50 [1, 3]: 6.6 mg/kg
CCCOC(=O)N(CC)[S+]([O-])N(C)C(=O)ON=C(C)SC (centres unmarked) [Example V]	115 mg/kg	–	LD50 [1, 3]: 7 mg/kg
CSC(C)(C)C=NOC(=O)N(C)[S+]([O-])N(C)C(=O)ON=CC(C)(C)SC [IV, N,N'-sulfinyldi[2-methyl-2-(methylthio)propionaldehyde O-(methylcarbamoyl)-oxime]]	1.8 mg/kg	–	LD50 [1, 3]: 6.5 mg/kg
CCCOC(=O)N(C)[S+]([O-])N(C)C(=O)Oc1cccc2c1OC(C)(C)C2 (centres unmarked) [IX, 2,3-dihydro-2,2-dimethylbenzofuranyl-7 N-[N'-(n-propoxycarbonyl)-N'-(methylaminosulfinyl)]-N-methylcarbamate]	100 mg/kg	9 mg/kg	–
CNC(=O)ON=C(C)SC [S-methyl N-(methylcarbamoyloxy)thioacetimidate, reference compound]	10 mg/kg	–	–
CCOC(=O)N(C)[S+]([O-])N(C)C(=O)Oc1cccc2c1OC(C)(C)C2 (centres unmarked) [VIII, 2,3-dihydro-2,2-dimethylbenzofuranyl-7 N-[N'-(ethoxycarbonyl)-N'-(methylaminosulfinyl)]-N-methylcarbamate]	56 mg/kg	13 mg/kg	Culex LC50 [2]: 0.04 ppm
CCCCCCCOC(=O)N(C)[S+]([O-])N(C)C(=O)Oc1cccc2c1OC(C)(C)C2 (centres unmarked) [X, 2,3-dihydro-2,2-dimethylbenzofuranyl-7 N-[N'-(n-heptoxycarbonyl)-N'-(methylaminosulfinyl)]-N-methylcarbamate]	150 mg/kg	13.5 mg/kg	Culex LC50 [2]: 0.015 ppm
CCCOC(=O)N(C)[S+]([O-])N(C)C(=O)Oc1ccccc1OC(C)C (centres unmarked) [XI, 2-isopropoxyphenyl N-[N'-(n-propoxycarbonyl)-N'-(methylaminosulfinyl)]-N-methylcarbamate]	500 to 1000 mg/kg	20 mg/kg	Culex LC50 [2]: 0.18 ppm
COC(=O)N(C)[S+]([O-])N(C)C(=O)Oc1cccc(C(C)C)c1 (centres unmarked) [XII, 3-isopropylphenyl N-[N'-(methoxycarbonyl)-N'-(methylaminosulfinyl)]-N-methylcarbamate]	70 mg/kg	80 mg/kg	–
CNC(=O)Oc1cccc2c1OC(C)(C)C2 [carbofuran, 2,3-dihydro-2,2-dimethyl-7-benzofuranyl methylcarbamate, reference compound]	–	–	Mice LD50 (Swiss white mice; mouse, in vivo, po): 2-8
